# Results taken from patent US20060052357A1, “Organometallic anti-tumour agent” (priority 2001, published 2006).
# Key:
# [1] = system: tumor cell cultures (KML); experiment: Protein synthesis: inclusion of 3H-amino acids in tumor cell cultures; type: cell-based, mice; details: 50 μg/ml, incubation 24 hours
# Description: The effect of the substances on protein synthesis is determined with the aid of the suppression stage through the inclusion of radioactive precursors of amino acids (totaled mixture of ^3H-amino acids). 1 million cells in a “log phase” were selected for this. The complexes were introduced in a dosage of 50 μg/ml and, in parallel, the amino acids with an activity of 10 mCi/ml were introduced into 10 ml bottles. After incubation for 24 hours, the cells were washed out from the cultivation nutrient medium, and a lysis (disruption) was carried out. The radioactivity of the proteins was determined in a […] (table 25).
# adenocarcinoma [2] = experiment: Adenocarcinoma transplanted after administration of the product; type: in vivo, mice; details: day 21
# Description: 3. Antitumor Activity for Adenocarcinoma Transplanted After Administration of the Product.
# The active ingredient of the invention was administered intravenously in the dosage stated in the table 4 days in succession in physiological saline solution of 0.3 ml each time. The adenocarcinoma was then implanted in the Balb mice. 21 days after the tumor was transplanted, the animals were sacrificed and the weight and size of the tumor recorded. The animals received no other drugs during the experiment and were kept with a normal feed ration.
# leukemia L-1210 = experiment: Leukemia L-1210 survival; type: in vivo, mice
# Description: (§1) The therapeutic efficacy was investigated on the leukemia tumor strains L-1210, P-388, and P-388 strains specifically obtained for drug resistance. The lifespan of the animals was set at 60 days in this case. Drug-resistant tumor were obtained by successive transplantation of the leukemia P-388 with ascites cells taken from mice which had been treated with rubomycin (strain P388/ph), vincristine (P388/vcr) and zisplatin (P388/cPt).
# Inoculum: 10^6 cells in 0.2 ml of physiological saline solution. Mice: BDF1, females 19-21 g. The products were administered intraabdominally.
# After transplantation of the tumor, the substance MOC.melphalan was administered intraabdominally to the animals in a dosage of 5 mg/kg in 0.3 ml of 10% Twin-80 solution on days 1 to 7. The effect of the substance was assessed on the basis of the lifespan and the weight change of the animals (table 9). The observation period was 60 days.
# B-16 melanoma tumor = experiment: B-16 melanoma in Black-line mice (Example 6); type: in vivo
# Description: After transplantation of the B-16 melanoma tumor to Black-line mice. (cell suspension with 10×10^6 cells/ml), MOC.melphalan was administered intraabdominally in a dosage of 5 mg/kg in 0.3 ml of 10% DMSO solution on days 3, 5 and 9. The animals were sacrificed on day 21 of the investigation and underwent histological, morphological examination (see table 9).
# After transplantation of the B-16 melanoma tumor into black-line mice (cell suspension with 10×10^6 cells/ml), the substance was administered intraabdominally in a dosage of 0.1 mg/animal in 0.3 ml of 10% DMSO solution on days 3, 5 and 9. The animals were sacrificed on day 16 of the investigation and underwent histological, morphological examination (see table 10, FIGS. 1, 2). The DNA concentration in the tumor cells was determined by spectrophotometry after electrophoresis. (Table 10, FIG. 3).
# P388/vcr = experiment: Drug-resistant leukemia P388/vcr (vincristine-resistant) survival; type: in vivo, mice; details: 5 mg/kg, days 1-7
# Excerpt: as §1
# Resistance to the products mentioned appear in the 8th, 6th and 4th generation.
# The products were administered intraabdominally. Cu(acac)2M was dissolved in 10% Twin 80.
# AKATON tumor [3] = experiment: AKATON small bowel adenocarcinoma, treatment with MOC.melphalan (Example 8); type: in vivo, mice; details: day 21
# Description: After transplantation of the AKATON tumor into white crossbred mice, the animals received the substance MOC.melphalan by intraabdominal administration in a dosage of 5 mg/kg in 0.3 ml of physiological solution on days 3, 5, 7 and 9. The animals were sacrificed on day 21 of the investigation and underwent histological, morphological examination (table 14).
# After transplantation of the AKATON tumor into white crossbred mice, the animals received the substance MOC.melphalan by intravenous administration in a dosage of 5 mg/kg in 0.3 ml of physiological solution on days 3, 5, 7 and 9. The animals were sacrificed on day 21 of the investigation and underwent histological, morphological examination (table 15).
# Toxicity investigations = type: in vivo, five laboratory species; details: 5 mg/kg of body weight
# Description: The toxicity of the complex (C5H7O2)2—Cu—C13H18Cl2N2O2 of the invention was determined on five laboratory species in various tests. […] It was additionally possible to show in the investigations that (C5H7O2)2—Cu—C13H18Cl2N2O2 induces no resistance even on prolonged administration.
# adenocarcinoma [4] = experiment: Adenocarcinoma, intravenous administration four times; type: in vivo, mice; details: 5 mg/kg intravenous four times
# Excerpt: 2. Antitumor Activity for Adenocarcinoma and Intra-Venous Administration (Four Times in Physiological Saline Solution)
# AKATON tumor [5] = experiment: AKATON tumor prevention by MOC.melphalan; type: in vivo, mice; details: for Average tumor mass: control 4.46; for Average tumor volume: control 7.90
# Description: Mice of the Balb line received the substance MOC.melphalan in dosages of 2.5 mg/kg and 5 mg/kg in 0.3 ml of physiological solution by intravenous administration on four consecutive days (1× a day). On day 5, the AKATON tumor was implanted in the animals. The animals were sacrificed on day 21 of the investigation and underwent histological, morphological examination (table 16, FIG. 6).
# C-180 sarcoma = experiment: Antitumor activity for C-180 sarcoma, intraperitoneal; type: in vivo; details: 5 mg/kg intraperitoneal
# Description: 4. Antitumor Activity for C-180 Sarcoma
# The results of series of experiments in which the stated active ingredient was administered intra-peritoneally in the stated dosage in physiological saline solution are shown in table 5 below.
# [6] = 5 mg/kg i.v. 4 days before implantation
# [7] = 2.5 mg/kg i.v. four consecutive days before implantation
# [8] = 5.0 mg/kg i.v. four consecutive days before implantation
smiles,measurement,setting,value
"CC(=O)C=C(C)[O-].CC(=O)C=C(C)[O-].NC(Cc1ccc(N(CCCl)CCCl)cc1)C(=O)O.[Cu+2] (centres unmarked) [MOC.melphalan, (C5H7O2)2—Cu—C13H18Cl2N2O2]",Suppression of amino acid inclusion,[1],59%
same,% inhibition (mass of the tumor),adenocarcinoma [2]; [6],80%
same,% inhibition (size of the tumor),adenocarcinoma [2]; [6],82.5%
same,Size of the tumor,"adenocarcinoma [2]; 5 mg/kg i.v. 4 days before implantation, control 7.9",1.38 cm^3
same,Mass of the tumor,"adenocarcinoma [2]; 5 mg/kg i.v. 4 days in succession before implantation, control 4.46",0.91 g
same,Change in weight,leukemia L-1210; 5 mg/kg intraabdominal days 1-7,-1.5 g
same,% of surviving animals,"leukemia L-1210; 5 mg/kg intraabdominal days 1-7, 60 days observation",100%
same,Lifespan of the animals in the experiment,"leukemia L-1210; 5 mg/kg intraabdominal days 1-7, control 8.5",>60 days
same,Percentage inhibition,"B-16 melanoma tumor; 0.1 mg/animal intraabdominal days 3, 5, 9, day 16",78%
same,Average tumor mass,"B-16 melanoma tumor; 0.1 mg/animal intraabdominal days 3, 5, 9, day 16, control 3.22",0.83 g
same,mitosis index,"B-16 melanoma tumor; 0.1 mg/animal, day 16, control 4.2",0.6
same,Percentage inhibition,"B-16 melanoma tumor; 5 mg/kg intraabdominal days 3, 5, 9, day 21",100%
same,Tumor weight,"B-16 melanoma tumor; FIG. 1, single black-line mouse after treatment, control mouse 3.15 g",0.3 g
same,DNA,"B-16 melanoma tumor; tumor cells, 0.1 mg/animal, day 16, control 4.3",0.8 mg/g
same,ILS %,P388/vcr,516%
same,Number of surviving animals/number of animals in group,P388/vcr,5/6
same,Percentage inhibition,"AKATON tumor [3]; 5 mg/kg intraabdominal days 3, 5, 7, 9",92%
same,Average tumor mass,"AKATON tumor [3]; 5 mg/kg intraabdominal days 3, 5, 7, 9, control 3.6",0.3
same,Percentage inhibition,"AKATON tumor [3]; 5 mg/kg intravenous days 3, 5, 7, 9",80%
same,Average tumor mass,"AKATON tumor [3]; 5 mg/kg intravenous days 3, 5, 7, 9, control 4.4",0.9 g
same,changes in organs and tissues,Toxicity investigations,no specific changes
same,changes in the peripheral blood count,Toxicity investigations,no serious changes
same,effects on renal and hepatic function,Toxicity investigations,no pathological effects
same,% inhibition,adenocarcinoma [4],80%
same,Mass of the tumor,adenocarcinoma [4]; control 4.4,0.9 g
same,Percent inhibition of tumor volume,AKATON tumor [5]; [7],40%
same,Percent inhibition of tumor weight,AKATON tumor [5]; [7],40%
same,Average tumor mass,AKATON tumor [5]; [7],2.67 g
same,Average tumor volume,AKATON tumor [5]; [7],4.76 cm^3
same,Percent inhibition of tumor volume,AKATON tumor [5]; [8],82%
same,Percent inhibition of tumor weight,AKATON tumor [5]; [8],80%
same,Average tumor mass,AKATON tumor [5]; [8],0.91 g
same,Average tumor volume,AKATON tumor [5]; [8],1.38 cm^3
same,% inhibition,C-180 sarcoma,100%
same,Mass of the tumor,C-180 sarcoma; control 2.8,no tumor
